Assay results as given in patent US20250230172A1 (Vanqua Bio, Inc., priority 2021, published 2025).

Each molecule was assayed against T1, GCase (Homo sapiens, UniProt P04062) (assay: live cell PFB assay in HELA cells for activation of GCase).
T1 construct: endogenous in cells; host or cells: HeLa cells
T1 sequence (P04062 40-536): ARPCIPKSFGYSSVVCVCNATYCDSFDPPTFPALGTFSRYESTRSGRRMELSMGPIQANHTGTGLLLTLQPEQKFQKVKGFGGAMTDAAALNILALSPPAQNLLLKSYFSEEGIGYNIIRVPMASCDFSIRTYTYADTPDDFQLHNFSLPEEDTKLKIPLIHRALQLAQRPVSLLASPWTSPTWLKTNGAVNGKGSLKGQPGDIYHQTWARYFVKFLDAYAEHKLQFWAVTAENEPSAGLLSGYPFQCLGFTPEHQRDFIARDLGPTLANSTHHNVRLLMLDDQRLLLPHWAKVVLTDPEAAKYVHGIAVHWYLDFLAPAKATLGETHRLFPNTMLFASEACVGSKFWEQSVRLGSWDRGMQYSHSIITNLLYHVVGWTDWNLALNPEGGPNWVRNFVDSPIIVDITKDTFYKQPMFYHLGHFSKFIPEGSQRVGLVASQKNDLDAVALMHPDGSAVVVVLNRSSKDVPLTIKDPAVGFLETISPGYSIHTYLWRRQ
Type: cell-based
Method: Exemplary compounds were evaluated for activation of GCase in a live cell PFB assay in HELA cells (essentially as described in Ysselstein et al., “LRRK2 kinase activity regulates lysosomal glucocerebrosidase in neurons derived from Parkinson's disease patients” Nature Communications (2019) 10:5570). […] EC50 ranges: A: <10 μM; B: >10-50 μM; C: >50-100 μM; D: >100 μM.

SMILES	EC50 [µM]
FC(F)Cn1ncc2ncc(N3CC[C@H]4[C@@H]3CCN4c3cc(C(F)(F)F)ccn3)nc21 (racemic) [Compound 56, rac-2-[(3aR,6aR)-4-[1-(2,2-difluoroethyl)-1H-pyrazolo[3,4-b]pyrazin-6-yl]-octahydropyrrolo[3,2-b]pyrrol-1-yl]-4-(trifluoromethyl)pyridine]	< 10
FC(F)Cn1ncc2ncc(N3CC[C@H]4[C@@H]3CCN4c3cccc(C(F)(F)F)n3)nc21 (racemic) [Compound 57, rac-2-[(3aR,6aR)-4-[1-(2,2-difluoroethyl)-1H-pyrazolo[3,4-b]pyrazin-6-yl]-octahydropyrrolo[3,2-b]pyrrol-1-yl]-6-(trifluoromethyl)pyridine]	10 to 50
FC(F)Cn1ncc2ncc(N3CC[C@H]4CN(c5cc(C(F)(F)F)ccn5)C[C@H]43)nc21 (racemic) [Compound 58, rac-2-[(3aR,6aR)-1-[1-(2,2-difluoroethyl)-1H-pyrazolo[3,4-b]pyrazin-6-yl]-octahydropyrrolo[3,4-b]pyrrol-5-yl]-4-(trifluoromethyl)pyridine]	10 to 50
FC(F)Cn1ncc2ncc(N3CC[C@H]4CN(c5cccc(C(F)(F)F)n5)C[C@H]43)nc21 (racemic) [Compound 59, rac-2-[(3aR,6aR)-1-[1-(2,2-difluoroethyl)-1H-pyrazolo[3,4-b]pyrazin-6-yl]-octahydropyrrolo[3,4-b]pyrrol-5-yl]-6-(trifluoromethyl)pyridine]	10 to 50
FC(F)Cn1ncc2ncc(N3C[C@@H]4CCN(c5cc(C(F)(F)F)ccn5)[C@@H]4C3)nc21 (racemic) [Compound 60, rac-2-[(3aR,6aR)-5-[1-(2,2-difluoroethyl)-1H-pyrazolo[3,4-b]pyrazin-6-yl]-octahydropyrrolo[2,3-c]pyrrol-1-yl]-4-(trifluoromethyl)pyridine]	10 to 50
FC(F)Cn1ncc2ncc(N3C[C@@H]4CCN(c5cccc(C(F)(F)F)n5)[C@@H]4C3)nc21 (racemic) [Compound 61, rac-2-[(3aR,6aR)-5-[1-(2,2-difluoroethyl)-1H-pyrazolo[3,4-b]pyrazin-6-yl]-octahydropyrrolo[2,3-c]pyrrol-1-yl]-6-(trifluoromethyl)pyridine]	10 to 50
O=C1[C@@H]2CN(c3cccc(C(F)(F)F)n3)C[C@@H]2CN1c1cnc2cnn(CC(F)F)c2n1 (racemic) [Compound 62, rac-(3aR,6aS)-2-[1-(2,2-difluoroethyl)-1H-pyrazolo[3,4-b]pyrazin-6-yl]-5-[6-(trifluoromethyl)pyridin-2-yl]-octahydropyrrolo[3,4-c]pyrrol-1-one]	10 to 50
FC(F)Cn1ncc2ncc(N3CC[C@@H]4CN(c5ccc(C(F)(F)F)cn5)C[C@H]4C3)nc21 (single isomer, unassigned) [Compound 68]	10 to 50
FC(F)Cn1ncc2ncc(N[C@H]3CC[C@@H]4CN(c5cccc(C(F)(F)F)n5)C[C@@H]4C3)nc21 (single isomer, unassigned) [Compound 70]	< 10
FC(F)Cn1ncc2ncc(N[C@@H]3CC[C@@H]4CN(c5cccc(C(F)(F)F)n5)C[C@@H]4C3)nc21 (single isomer, unassigned) [Compound 71]	10 to 50
FC(F)Cn1ncc2ncc(N[C@H]3CC[C@@H]4CN(c5cc(C(F)(F)F)ccn5)C[C@@H]4C3)nc21 (single isomer, unassigned) [Compound 72]	< 10
FC(F)Cn1ncc2ncc(N[C@@H]3CC[C@@H]4CN(c5cc(C(F)(F)F)ccn5)C[C@@H]4C3)nc21 (single isomer, unassigned) [Compound 73]	10 to 50
FC(F)Cn1ncc2ncc(N[C@H]3CC[C@@H]4CN(c5cccnc5C(F)(F)F)C[C@@H]4C3)nc21 (single isomer, unassigned) [Compound 74]	10 to 50
FC(F)Cn1ncc2ncc(N[C@@H]3CC[C@@H]4CN(c5cccnc5C(F)(F)F)C[C@@H]4C3)nc21 (single isomer, unassigned) [Compound 75]	> 100
FC(F)Cn1ncc2ncc(N3CCN4C[C@H](Oc5cccnc5C(F)(F)F)C[C@H]4C3)nc21 [Compound 26, 3-{[(7R,8aS)-2-[1-(2,2-difluoroethyl)-1H-pyrazolo[3,4-b]pyrazin-6-yl]-octahydropyrrolo[1,2-a]pyrazin-7-yl]oxy}-2-(trifluoromethyl)pyridine]	50 to 100
Cn1c(-c2ccccc2)c(C(=O)N2CCN3C[C@H](Oc4cccnc4C(F)(F)F)C[C@H]3C2)c2nccnc21 [Compound 27, 3-{[(7R,8aS)-2-{5-methyl-6-phenyl-5H-pyrrolo[2,3-b]pyrazine-7-carbonyl}-octahydropyrrolo[1,2-a]pyrazin-7-yl]oxy}-2-(trifluoromethyl)pyridine]	50 to 100
O=C(c1ccc2cc[nH]c2c1)N1CCN2C[C@H](Oc3cccnc3C(F)(F)F)C[C@H]2C1 [Compound 28, 6-[(7R,8aS)-7-{[2-(trifluoromethyl)pyridin-3-yl]oxy}-octahydropyrrolo[1,2-a]pyrazine-2-carbonyl]-1H-indole]	10 to 50
FC(F)Cn1ncc2ncc(N3CC4CC(Oc5cccc(C(F)(F)F)n5)CC4C3)nc21 (centres unmarked) [Compound 29, 2-({2-[1-(2,2-difluoroethyl)-1H-pyrazolo[3,4-b]pyrazin-6-yl]-octahydrocyclopenta[c]pyrrol-5-yl}oxy)-6-(trifluoromethyl)pyridine]	< 10
FC(F)Cn1ncc2ncc(N3CC4CC(Oc5cc(C(F)(F)F)ccn5)CC4C3)nc21 (centres unmarked) [Compound 30, 2-({2-[1-(2,2-difluoroethyl)-1H-pyrazolo[3,4-b]pyrazin-6-yl]-octahydrocyclopenta[c]pyrrol-5-yl}oxy)-4-(trifluoromethyl)pyridine]	< 10
FC(F)Cn1ncc2ncc(N3CC4CC(Oc5cccnc5C(F)(F)F)CC4C3)nc21 (centres unmarked) [Compound 31, 3-({2-[1-(2,2-difluoroethyl)-1H-pyrazolo[3,4-b]pyrazin-6-yl]-octahydrocyclopenta[c]pyrrol-5-yl}oxy)-2-(trifluoromethyl)pyridine]	> 100
FC(F)Cn1ncc2ncc(N[C@@H]3C[C@@H]4CN(c5cccc(C(F)(F)F)n5)C[C@@H]4C3)nc21 [Compound 32, (3aR,5S,6aS)—N-[1-(2,2-difluoroethyl)-1H-pyrazolo[3,4-b]pyrazin-6-yl]-2-[6-(trifluoromethyl)pyridin-2-yl]-octahydrocyclopenta[c]pyrrol-5-amine]	< 10
FC(F)Cn1ncc2ncc(N[C@@H]3C[C@@H]4CN(c5cc(C(F)(F)F)ccn5)C[C@@H]4C3)nc21 [Compound 33, (3aR,5S,6aS)—N-[1-(2,2-difluoroethyl)-1H-pyrazolo[3,4-b]pyrazin-6-yl]-2-[4-(trifluoromethyl)pyridin-2-yl]-octahydrocyclopenta[c]pyrrol-5-amine]	< 10
FC(F)Cn1ncc2ncc(N[C@H]3C[C@@H]4CN(c5cccc(C(F)(F)F)n5)C[C@@H]4C3)nc21 [Compound 34, (3aR,5R,6aS)—N-[1-(2,2-difluoroethyl)-1H-pyrazolo[3,4-b]pyrazin-6-yl]-2-[6-(trifluoromethyl)pyridin-2-yl]-octahydrocyclopenta[c]pyrrol-5-amine]	10 to 50
FC(F)Cn1ncc2ncc(N[C@H]3C[C@@H]4CN(c5cc(C(F)(F)F)ccn5)C[C@@H]4C3)nc21 [Compound 35, (3aR,5R,6aS)—N-[1-(2,2-difluoroethyl)-1H-pyrazolo[3,4-b]pyrazin-6-yl]-2-[4-(trifluoromethyl)pyridin-2-yl]-octahydrocyclopenta[c]pyrrol-5-amine]	< 10
FC(F)Cn1ncc2ncc(N[C@@H]3C[C@@H]4CN(c5cccnc5C(F)(F)F)C[C@@H]4C3)nc21 [Compound 36, (3aR,5S,6aS)—N-[1-(2,2-difluoroethyl)-1H-pyrazolo[3,4-b]pyrazin-6-yl]-2-[2-(trifluoromethyl)pyridin-3-yl]-octahydrocyclopenta[c]pyrrol-5-amine]	< 10
FC(F)Cn1ncc2ncc(N[C@H]3C[C@@H]4CN(c5cccnc5C(F)(F)F)C[C@@H]4C3)nc21 [Compound 37, (3aR,5R,6aS)—N-[1-(2,2-difluoroethyl)-1H-pyrazolo[3,4-b]pyrazin-6-yl]-2-[2-(trifluoromethyl)pyridin-3-yl]-octahydrocyclopenta[c]pyrrol-5-amine]	< 10
FC(F)Cn1ncc2ncc(N[C@@H]3C[C@@H]4CN(c5ncccc5C(F)(F)F)C[C@@H]4C3)nc21 [Compound 38, (3aR,5S,6aS)—N-[1-(2,2-difluoroethyl)-1H-pyrazolo[3,4-b]pyrazin-6-yl]-2-[3-(trifluoromethyl)pyridin-2-yl]-octahydrocyclopenta[c]pyrrol-5-amine]	< 10
FC(F)Cn1ncc2ncc(N[C@@H]3C[C@@H]4CN(c5ccc(C(F)(F)F)nc5)C[C@@H]4C3)nc21 [Compound 39, (3aR,5S,6aS)—N-[1-(2,2-difluoroethyl)-1H-pyrazolo[3,4-b]pyrazin-6-yl]-2-[6-(trifluoromethyl)pyridin-3-yl]-octahydrocyclopenta[c]pyrrol-5-amine]	< 10
FC(F)Cn1ncc2ncc(N[C@H]3C[C@@H]4CN(c5ccc(C(F)(F)F)cn5)C[C@@H]4C3)nc21 [Compound 40, (3aR,5S,6aS)—N-[1-(2,2-difluoroethyl)-1H-pyrazolo[3,4-b]pyrazin-6-yl]-2-[5-(trifluoromethyl)pyridin-2-yl]-octahydrocyclopenta[c]pyrrol-5-amine]	10 to 50
